Measured values as given in patent US20200179479A1, “INHIBITION OF ALPHA5BETA1 INTEGRIN WITH ATN-161 AS A NOVEL THERAPY FOR VASCULAR DEMENTIA” (University of Kentucky Research Foundation, priority 2018, published 2020).
“Also recorded” adds a separate entry of the source.

Assays:
MMP-9 [1] = assay: qPCR of ipsilateral cortex at PSD3, MMP-9; type: in vivo, mouse; details: relative to sham; mean±SD, n=7; Sham 1.018±0.1759, Vehicle 6.761±5.321
Description: (§1) On PSD3, brains were removed and sectioned at 2 mm where the ipsilateral cortical tissue and corresponding contralateral cortical tissue were isolated. All sections per animal were combined and homogenized in Trizol (Life Technologies). RNA extraction was performed according to the RNA extraction kit provided by the manufacturer (Life Technologies). RNA was converted to cDNA using a high capacity cDNA reverse transcriptase kit (Applied Bioscience, Grand Island, N.Y., USA). 18S (control; Mm03928990_g1), collagen IV (Mm00483669_m1), IL-1β (Mm00434228_m1), CXCL12 (Mm00445553_m1), and MMP9 (Mm00442991_m1) Taqman genes were analyzed using Real-time PCR (ViiA7, Life Technologies). Data was analyzed as fold change comparing vehicle and ATN-161 treated mice as a % control (sham).

α5β1 integrin [2] = target: T1, α5β1 integrin (Mus musculus, UniProt P09055+P11688); assay: BCAS mouse model, α5 staining in cortex; type: in vivo; details: 14 days, 1 mg/kg i.p. after surgery and every other day to day 12, n=4, preliminary data
T1 construct: Mice (WT, α5KO, DB) are subjected to either sham or BCAS (0.18 mm ID coils) surgery; from tissue; host or cells: living mouse; brain (cortex)
Description: Representative images within the cortex of α5 staining in BCAS animals treated with ATN-161 (1 mg/kg; i.p.). ATN-161 n=4
Quantification of α5-positive pixel density. ***p≤0.001 compared to sham group.
(§2) Mice (WT, α5KO, DB) are subjected to either sham or BCAS (0.18 mm ID coils) surgery. Euthanasia and brain tissue extraction, and processing for immunohistochemistry or western blot analysis (see below) will occur at early (14 days) or late (30 and 60 days) time points following BCAS. This will allow correlation of α5β1 integrin expression levels with the progression of brain injury over time, whether it could potentially contribute to this pathology early and/or late, and determine whether this is influenced by the diabetic phenotype prior to overt cerebrovascular pathology.

MMP-9 [3] = assay: Immunohistochemical staining of MMP-9 in stroked brain; type: in vivo, mouse; details: mean±SD, n=7
Description: (§3) On PSD3, animals were systemically perfused with PBS (Phosphate Buffered Solution, 1×) for 5 minutes. Brains were removed, flash frozen in liquid nitrogen, and stored at −20 C until use. The brains were coronally sectioned by cryostat at 20 μm and mounted (four per slide, 2 mm separating each section) for staining. Negative controls (no primary antibody) were run in tandem with each target to determine thresholding values.
(§4) Sections were fixed in methanol:acetone (1:1), followed by blocking buffer (5% bovine serum albumin (Fisher Scientific) in PBS with 0.1% Triton-X). Sections were incubated in primary antibody overnight at 4 C (anti-rabbit PECAM at 1:100, Fisher Scientific; anti-rat CD49e at 1:250, BD Pharminagen; anti-rat CD45 at 1:200, ThermoFisher Scientific, anti-rabbit Claudin-5 at 1:200, Abcam, anti-rabbit MMP-9 at 1:100, Abcam, and anti-rabbit fibronectin at 1:100, Abcam). Sections were washed and placed in fluorophore-conjugated secondary antibody, followed by NucBlue cell nucleus counterstain (Fisher Scientific) at room temperature (Vector Labs, 1:250), then cover slipped (Vector Labs) and imaged on a Nikon Eclipse Ti and software (Nikon, Melville, N.Y., USA). Image J was used to quantify all Immunofluorescence positive pixels. CD45: One 4× image per all four sections were taken and averaged. […]

integrin α5β1 [4] = target: T2, integrin α5β1 (Mus musculus, UniProt P09055+P11688); assay: Immunohistochemistry of integrin α5β1 (CD49e) in stroked brain; type: in vivo; details: 1 mg/kg IP x3; mean±SD, n=7; Vehicle 308484±53485; p=0.0835
T2 construct: Animals received an IP injection of either Vehicle (sterile PBS) or ATN-161; from tissue; host or cells: living mouse; brain / cerebrovasculature
Description: as §3, §4

collagen IV = assay: qPCR of ipsilateral cortex at PSD3, collagen IV; type: in vivo, mouse; details: relative to sham; mean±SD, n=8; Sham 1.018±0.1573, Vehicle 0.3543±0.1013
Description: as §1

Claudin-5 = assay: Immunofluorescence of Claudin-5 in stroked brain; type: in vivo, mouse; details: mean±SD, n=6; Vehicle 19830±5538
Description: as §3, §4

GFAP = assay: BCAS mouse model, GFAP (astrocyte marker) staining in striatum; type: in vivo; details: 14 days, striatum/white matter, 1 mg/kg i.p. after surgery and days 2, 4, 6, 8, 10, 12, n=4
Description: Representative images within the striatum of GFAP (astrocyte marker) staining in BCAS animals treated with ATN-161 (1 mg/kg; i.p.); treatment immediately after surgery and on post-stenosis days 2, 4, 6, 8, 10, 12. ATN-161: n=4
Quantification of GFAP-positive pixel density. **p≤0.01 compared to sham group.
as §2

IgG = IgG immunohistochemistry (BBB permeability, IgG extravasation) in stroked brain; type: in vivo, mouse; details: PSD3; 1 mg/kg IP x3; mean±SD, n=8; Vehicle 70125±53485
Description: as §3
Sections were fixed in 10% phosphate-buffered formalin. After washing, IgG 568 biotinylated antibody (1:500, Thermo-Fisher Scientific) in 1% bovine serum albumin was applied to the tissue for 2 hours. Slides were then cover slipped (Vector Labs) for imaging on a Nikon Eclipse Ti and software (Nikon, Melville, N.Y., USA). Image J was used to isolate and count IgG positive pixels. Three separate 20× images per core region were taken per section and averaged.

IL-1β = assay: qPCR of ipsilateral cortex at PSD3, IL-1β; type: in vivo, mouse; details: relative to sham; mean±SD, n=7; Sham 1.023±0.1666, Vehicle 27.04±19.96
Description: as §1

α5β1 integrin [5] = target: T1, α5β1 integrin; assay: BCAS mouse model, y-maze % spontaneous alternation; type: in vivo; details: post-stenosis day 14, 1 mg/kg i.p. after surgery and days 2, 4, 6, 8, 10, 12, n=4
Description: On post-stenosis day 14, mice underwent y-maze testing and % spontaneous alternation (working memory) was quantified. BCAS animals were treated with vehicle or ATN-161 (1 mg/kg; i.p.) treatment immediately after surgery and on post-stenosis days 2, 4, 6, 8, 10, 12. […] Sham: n=4; BCAS: n=8; ATN-161: n=4
as §2

[6] = Physiological measurements (MouseOx) and body weight after reperfusion in stroked mice; type: in vivo, mouse
Description: (§5) Mice underwent transient tandem ipsilateral common carotid artery/middle cerebral artery (CCA/MCA) occlusion for 60 minutes as previously published, followed by reperfusion for 1-3 days. Briefly, a small burr hole is created directly over the M2 branch of the MCA, and a 0.0005 inch metal filament is placed under the artery on both sides of the burr hole. The CCA was then isolated and occluded using an aneurysm clip. Blood flow was determined with the Laser Doppler Perfusion Monitor (Perimed, Ardmore, Pa., USA). Animals that received less than 80% occlusion rate from baseline (i.e. pre-occlusion) were excluded from analysis. Sham animals underwent the listed procedure without vascular occlusion. All mice were allowed to recover to post-stroke day (PSD)3, during which daily body weights were measured.
Immediately following reperfusion, heart, rate, pulse distension, and body temperature were recorded using MouseOx (Starr Life Science, Holliston, Mass., USA). After 5 minutes, sterile PBS (Vehicle) or ATN-161 was injected via IP (as described below); mice were continually observed for 15 minutes post reperfusion.

[7] = test system: angiogenesis and tumor growth; details: Donate et al.; cited from earlier work
integrin α5β1 [8] = target: T2, integrin α5β1; assay: 11-point behavioral Neuroscore after experimental ischemic stroke; type: in vivo; details: vs Vehicle
Description: as §5
Animals received an IP injection of either Vehicle (sterile PBS) or ATN-161 (lmg/kg, Medkoo Biosciences, Morrisville, N.C., USA) immediately after reperfusion, PSD1 and on PSD2. Ischemic stroke was confirmed on 2 mm sections stained with […] (TTC; BD, Sparks, M D, USA) or Magnetic Resonance Imaging on PSD3. Accounting for edema volume, infarct size based on TTC images was analyzed with Image J (NH) software as: […]

integrin α5β1 [9] = target: T2, integrin α5β1; assay: MRI (ADC and T2-weighted) infarct and edema volume after experimental ischemic stroke; type: in vivo
Description: as §5
Animals received an IP injection of either Vehicle (sterile PBS) or ATN-161 (lmg/kg, Medkoo Biosciences, Morrisville, N.C., USA) immediately after reperfusion, PSD1 and on PSD2. […] Accounting for edema volume, infarct size based on TTC images was analyzed with Image J (NH) software as:
PSD3 animals were anesthetized with isoflurane and placed on a heated bed where body temperature and breathing rate were carefully monitored throughout the scan. […] All images were analyzed with ITK-SNAP (www.itksnap.org) by a blinded, independent neuroradiologist. […]

[10] = Phase I and II clinical oncology studies, 1 mg/kg 10-minute infusions: dry mouth, cellulitis, paresthesia in one out of four patients; cited from earlier work
CXCL12 = assay: qPCR of ipsilateral cortex at PSD3, CXCL12; type: in vivo, mouse; details: relative to sham; mean±SD, n=8; Sham 1.015±0.1964, Vehicle 0.5271±0.1779
Description: as §1

α5β1 integrin [11] = details: single IP dose 24 hours after MCAO; Wu et al.; cited from earlier work
[12] = IP ATN-161 5 min after reperfusion, vs Vehicle

T2 sequence (P11688 45-898 limits assumed): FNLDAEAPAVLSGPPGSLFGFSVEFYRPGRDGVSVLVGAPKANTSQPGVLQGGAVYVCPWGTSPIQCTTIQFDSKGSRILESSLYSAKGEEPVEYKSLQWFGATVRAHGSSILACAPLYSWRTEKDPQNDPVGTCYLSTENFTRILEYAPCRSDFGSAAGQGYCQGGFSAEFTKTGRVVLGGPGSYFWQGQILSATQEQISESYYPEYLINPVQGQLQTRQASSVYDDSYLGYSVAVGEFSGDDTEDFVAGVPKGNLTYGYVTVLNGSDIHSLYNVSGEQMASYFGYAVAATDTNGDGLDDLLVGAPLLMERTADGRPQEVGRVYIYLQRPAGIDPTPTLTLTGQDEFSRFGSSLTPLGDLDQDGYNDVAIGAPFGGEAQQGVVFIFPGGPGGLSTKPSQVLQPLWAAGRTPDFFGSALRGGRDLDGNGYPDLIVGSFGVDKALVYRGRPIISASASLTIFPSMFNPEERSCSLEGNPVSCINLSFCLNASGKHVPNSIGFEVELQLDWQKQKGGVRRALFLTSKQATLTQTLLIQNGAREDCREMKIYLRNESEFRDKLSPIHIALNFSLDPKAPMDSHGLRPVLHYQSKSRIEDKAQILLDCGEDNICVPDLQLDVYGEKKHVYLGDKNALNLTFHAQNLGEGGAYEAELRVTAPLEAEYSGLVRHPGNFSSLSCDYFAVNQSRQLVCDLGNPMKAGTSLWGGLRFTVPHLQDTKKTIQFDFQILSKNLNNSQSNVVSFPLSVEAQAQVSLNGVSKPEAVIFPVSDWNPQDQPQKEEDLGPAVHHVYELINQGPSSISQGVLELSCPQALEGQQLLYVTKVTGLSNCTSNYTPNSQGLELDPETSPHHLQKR
T2 sequence (P11688 899-1053 limits assumed): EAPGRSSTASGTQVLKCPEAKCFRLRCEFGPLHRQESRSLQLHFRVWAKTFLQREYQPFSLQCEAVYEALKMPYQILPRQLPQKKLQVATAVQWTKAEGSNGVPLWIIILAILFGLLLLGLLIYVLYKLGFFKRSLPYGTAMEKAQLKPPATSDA
T2 sequence (P09055 21-798): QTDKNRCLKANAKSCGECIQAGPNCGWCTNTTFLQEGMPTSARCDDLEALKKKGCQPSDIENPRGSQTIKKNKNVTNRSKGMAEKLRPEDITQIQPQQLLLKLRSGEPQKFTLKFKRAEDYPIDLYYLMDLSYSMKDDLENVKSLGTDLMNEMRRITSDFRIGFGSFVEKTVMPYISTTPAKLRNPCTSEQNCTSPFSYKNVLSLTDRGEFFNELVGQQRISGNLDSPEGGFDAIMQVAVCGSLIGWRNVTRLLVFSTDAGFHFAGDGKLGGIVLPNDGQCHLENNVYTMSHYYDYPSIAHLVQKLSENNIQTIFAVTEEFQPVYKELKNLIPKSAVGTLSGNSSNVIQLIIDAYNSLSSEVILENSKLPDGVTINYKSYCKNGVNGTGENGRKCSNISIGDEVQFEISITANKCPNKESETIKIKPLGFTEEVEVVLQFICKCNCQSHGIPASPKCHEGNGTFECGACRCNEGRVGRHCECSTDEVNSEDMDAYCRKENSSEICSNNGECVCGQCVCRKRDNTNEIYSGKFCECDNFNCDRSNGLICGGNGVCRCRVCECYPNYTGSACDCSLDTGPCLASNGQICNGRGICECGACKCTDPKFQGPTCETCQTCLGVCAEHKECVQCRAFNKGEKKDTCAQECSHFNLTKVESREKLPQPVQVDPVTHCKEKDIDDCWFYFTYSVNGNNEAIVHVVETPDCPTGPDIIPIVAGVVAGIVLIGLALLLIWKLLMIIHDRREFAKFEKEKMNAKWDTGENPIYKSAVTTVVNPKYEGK
T1 sequence (P11688 45-898 limits assumed): as the sequence (P11688 45-898 limits assumed) above
T1 sequence (P11688 899-1053 limits assumed): as the sequence (P11688 899-1053 limits assumed) above
T1 sequence (P09055 21-798): as the sequence (P09055 21-798) above

Ac-PHSCN-NH2 [ATN-161]
qPCR MMP-9, ipsilateral cortex at PSD3 (MMP-9 [1]): 2.757±2.401 fold change
α5 expression (α5-positive pixel density) in cortex following BCAS (α5β1 integrin [2]): decreases α5β1 integrin expression compared to controls; also recorded: decreases α5 expression compared to controls
MMP-9 positive pixels at PSD3 in the peri-infarct (MMP-9 [3]; Vehicle 189516±170441, p=0.0450): 42227±180171 positive pixels
MMP-9 positive pixels at PSD3 in the core (MMP-9 [3]; Vehicle 443691±220951, p=0.0734): 232262±68098 positive pixels
Integrin α5β1 analysis at PSD3 in peri-infarct (integrin α5β1 [4]): 162166±23348 positive pixels
qPCR collagen IV, ipsilateral cortex at PSD3 (collagen IV): 0.8563±0.6898 fold change
Claudin-5 positive pixels in the core at PSD3 (Claudin-5): 44220±19878 positive pixels
inflammation (GFAP-positive pixel density, astrocyte activation) following BCAS (GFAP): decreases inflammation compared to controls
IgG positive pixel analysis in the core (IgG): 16753±23348 positive pixels
qPCR IL-1β, ipsilateral cortex at PSD3 (IL-1β): 11.89±9.235 fold change
cognitive outcome, y-maze % spontaneous alternation (working memory) (α5β1 integrin [5]): improves cognitive outcome; also recorded: A positive trend is observed
percent change of body temperature following reperfusion [6, 12]: did not show any differences
percent change of heart rate (bpm) following reperfusion [6, 12]: did not show any differences
percent change of pulse distension following reperfusion [6, 12]: did not show any differences
percent change of body weight following ischemic stroke ([6]; IP ATN-161, vs Vehicle): did not show any differences
doses producing the most significant reduction in activity (angiogenesis and tumor growth) [7]: 1 to 5 mg/kg
11-point Neuroscore on PSD1 (integrin α5β1 [8]): no difference
Infarct volume analysis of T2 weighted MRI scan following MCAo (integrin α5β1 [9]; 1 mg/kg, PSD 3, n=8 vs Vehicle n=7, p≤0.05): reduces infarct volume; also recorded: decreased infarct volumes
ADC analysis for infarct volume (integrin α5β1 [9]; PSD3, 1 mg/kg IP after reperfusion, PSD1, PSD2, absent edema volume, mean±SD, n=8, Vehicle 17.9±4.677): 12.24±3.758
safety and tolerability in clinical trials [10]: safe and well-tolerated; also recorded: limited side effects
qPCR CXCL12, ipsilateral cortex at PSD3 (CXCL12): 0.8488±0.2846 fold change

PHSRN
effect after rat transient MCAO (α5β1 integrin [11]): neuroprotective, proangiogenic and increased neurogenesis
